{"source": "patent US4835162A", "about": "(priority 1987, dated 1989)", "key": {"[1]": {"molecular_target": "nicotinic receptors (rat brain membranes)", "settings": "read-out: 3H-MCC Binding IC50"}, "rats [2]": {"system": "rats", "settings": "rat, in vivo"}, "[3]": {"molecular_target": "nicotinic receptors (rat brain membranes)", "format": "binding", "settings": "read-out: 3H-Nicotine Binding IC50"}, "rats [4]": {"system": "rats", "settings": "rat, in vivo", "remark": "listed apart in the source"}, "rats [5]": {"system": "rats", "design": "species or system Sprague-Dawley male rats; Blockade of (nicotine-induced prostration) EC50: unit not given here", "settings": "rat, in vivo"}, "rats [6]": {"system": "rats", "assay": "animal or person", "settings": "Rattus norvegicus, ip, 7 min, read-out: % Antagonism (seizures)"}, "rats [7]": {"system": "rats", "assay": "animal or person", "settings": "Rattus norvegicus, iv, read-out: Antagonistic dose needed to completely block elevation in systolic blood pressure"}, "rats [8]": {"system": "rats", "settings": "rat, in vivo", "remark": "listed apart in the source"}, "[9]": {"system": "nicotinic receptors (rat brain membranes)", "format": "binding"}, "[10]": {"system": "nicotinic receptors (rat brain membranes)", "format": "binding", "remark": "listed apart in the source"}, "rats [11]": {"system": "rats", "settings": "rat, in vivo", "remark": "listed apart in the source"}, "[12]": {"molecular_target": "nicotinic receptors (rat brain membranes)", "format": "binding", "settings": "for IC50: pH 7, read-out: [3H]-nicotine IC50; for Kd: read-out: Kd value in competition binding"}}, "note": "Entries after “also recorded” stand apart in the source; their conditions may differ. Where two headings read alike, the source gives them in different places.", "data": [{"compound": "C[N+](C)(C)CCOC(=O)C1CCCCC1", "note": "[TMAE cyclohexylcarboxylate, choline ester of cyclohexylcarboxylic acid]", "values": [{"measurement": "IC50", "setting": "[1]", "result": 50, "unit": "nM"}, {"measurement": "% Antagonism (protection against nicotine mortality)", "setting": "rats [2]", "result": 66, "unit": "%"}, {"measurement": "IC50", "setting": "[3]", "result": 80, "unit": "nM"}, {"measurement": "Seizures", "setting": "rats [4]", "result": "1/8"}, {"measurement": "blockade of seizure activity", "setting": "rats [4]", "result": 78, "unit": "%"}, {"measurement": "Blockade of (nicotine-induced prostration) EC50", "setting": "rats [5]", "result": 10}, {"measurement": "responders at 25 mg/kg", "setting": "rats [6]", "result": 78, "unit": "%"}]}, {"compound": "C[N+](C)(C)CCOC(=O)Cc1ccccc1", "note": "[TMAE phenylacetate]", "values": [{"measurement": "IC50", "setting": "[1]", "result": 300, "unit": "nM"}, {"measurement": "IC50", "setting": "[3]", "result": 2000, "unit": "nM"}, {"measurement": "Blockade of (nicotine-induced prostration) EC50", "setting": "rats [5]", "result": 100}, {"measurement": "blockade of nicotine-induced prostration / antagonism, in words", "setting": "rats [5]", "result": "next in effectiveness and of comparable activity"}]}, {"compound": "C[N+](C)(C)CCOC(=O)Nc1ccccc1", "note": "[TMAE phenylcarbamate]", "values": [{"measurement": "IC50", "setting": "[1]", "result": 800, "unit": "nM"}, {"measurement": "% Antagonism (protection against nicotine mortality)", "setting": "rats [2]", "result": 50, "unit": "%"}, {"measurement": "Mortality", "setting": "rats [2]", "result": "4/10"}, {"measurement": "IC50", "setting": "[3]", "result": 6000, "unit": "nM"}, {"measurement": "Seizures", "setting": "rats [4]", "result": "1/9"}, {"measurement": "protection against seizures, in words", "setting": "rats [4]", "result": "almost complete protection"}, {"measurement": "ED100", "setting": "rats [7]", "result": "5 ± 1", "unit": "mg/kg"}, {"measurement": "Blockade of (nicotine-induced prostration) EC50", "setting": "rats [5]", "result": 200}, {"measurement": "blockade of nicotine-induced prostration / antagonism, in words", "setting": "rats [5]", "result": "next in effectiveness and of comparable activity"}, {"measurement": "responders at 25 mg/kg", "setting": "rats [6]", "result": 89, "unit": "%"}]}, {"compound": "C[N+](C)(C)CCOC(=S)Nc1ccccc1", "note": "[TMAE phenylthiocarbamate]", "values": [{"measurement": "IC50", "setting": "[1]", "result": 500, "unit": "nM"}, {"measurement": "% Antagonism (protection against nicotine mortality)", "setting": "rats [2]", "result": 63, "unit": "%"}, {"measurement": "Mortality", "setting": "rats [2]", "result": "3/10"}, {"measurement": "IC50", "setting": "[3]", "result": 500, "unit": "nM"}, {"measurement": "ED100", "setting": "rats [7]", "result": "4 ± 0.8", "unit": "mg/kg"}, {"measurement": "Blockade of (nicotine-induced prostration) EC50", "setting": "rats [5]", "result": 50}, {"measurement": "blockade of nicotine-induced prostration / antagonism, in words", "setting": "rats [5]", "result": "next in effectiveness and of comparable activity"}]}, {"compound": "C[N+](C)(C)CCOC(=O)CCC(=O)OCC[N+](C)(C)C", "note": "[TMAE succinate, succinylcholine]", "values": [{"measurement": "Prostration EC50", "setting": "rats [8]", "result": 50}]}, {"compound": "[3H]C([3H])([3H])[N+](C)(C)CCOC(=O)NC", "note": "[[^3 H]-MCC, [^3 H]-methylcarbamyl choline]", "values": [{"measurement": "Bmax of [3H]-MCC binding", "setting": "[9]", "result": "4.0×10^-14 moles/mg protein"}, {"measurement": "Scatchard Kd and Bmax with unlabeled (-)-nicotine replacing MCC, in words", "setting": "[9]", "result": "comparable Kd and Bmax values"}, {"measurement": "rate constant for association, [3H]-MCC", "setting": "[9]; brain membranes, pH 7", "result": 300000, "unit": "M⁻¹ s⁻¹"}, {"measurement": "rate constant for dissociation, [3H]-MCC", "setting": "[9]; brain membranes, pH 7", "result": 0.001, "unit": "s⁻¹"}, {"measurement": "Kd", "setting": "[9]; read-out: Kd (Hill binding constant) of [3H]-MCC", "result": 0.9, "unit": "nM"}, {"measurement": "Kd", "setting": "[9]; read-out: Kd from rate constants, [3H]-MCC", "result": 3.3, "unit": "nM"}, {"measurement": "Kd", "setting": "[9]; read-out: Kd, Scatchard analysis of [3H]-MCC binding", "result": 1.1, "unit": "nM"}, {"measurement": "displaceability of [3H]-MCC binding by muscarinic antagonists", "setting": "[10]", "result": "not [^3 H]-MCC binding, is displaceable by low concentrations of muscarinic antagonists; also recorded: not displaceable by muscarinic cholinergic antagonists"}]}, {"compound": "CC(=O)OCC[N+](C)(C)C", "note": "[acetylcholine]", "values": [{"measurement": "Prostration EC50", "setting": "rats [8]", "result": 300}, {"measurement": "psychotropic action (prostration), in words", "setting": "rats [11]", "result": "inactive"}]}, {"compound": "CN1[C@@H]2CC[C@H]1C[C@@H](OC(=O)C(CO)c1ccccc1)C2", "note": "(stereo partly shown) [atropine, reference compound]", "values": [{"measurement": "protection against nicotine mortality, in words", "setting": "rats [2]", "result": "ineffective"}, {"measurement": "Seizures", "setting": "rats [4]", "result": "6/6"}, {"measurement": "blockade of nicotine-induced prostration / antagonism, in words", "setting": "rats [5]", "result": "inactive"}, {"measurement": "responders at 25 mg/kg", "setting": "rats [6]", "result": 0, "unit": "%"}]}, {"compound": "C[N+](C)(C)CCOC(N)=O", "note": "[carbamylcholine]", "values": [{"measurement": "Prostration EC50", "setting": "rats [8]", "result": 100}]}, {"compound": "O=c1cccc2n1C[C@@H]1CNC[C@H]2C1", "note": "[cytisine, reference compound]", "values": [{"measurement": "IC50", "setting": "[1]; pH 7.5", "result": 0.1, "unit": "nM"}, {"measurement": "Prostration EC50", "setting": "rats [8]", "result": 2}, {"measurement": "IC50", "setting": "[3]; pH 7.5", "result": 6, "unit": "nM"}]}, {"compound": "C[N+](C)(C)CCCCCC[N+](C)(C)C", "note": "[hexamethonium]", "values": [{"measurement": "IC50", "setting": "[12]", "result": "> 100000", "unit": "nM"}, {"measurement": "Kd", "setting": "[12]", "result": "> 100000", "unit": "nM"}]}, {"compound": "CCN(CC)CC(=O)Nc1c(C)cccc1C", "note": "[lidocaine, reference compound]", "values": [{"measurement": "blockade of nicotine-induced prostration / antagonism, in words", "setting": "rats [5]", "result": "inactive"}]}, {"compound": "CN1C(CC(O)c2ccccc2)CCCC1CC(O)c1ccccc1", "note": "(stereo not shown) [lobelanidine, reference compound]", "values": [{"measurement": "IC50", "setting": "[1]", "result": 5, "unit": "nM"}, {"measurement": "IC50", "setting": "[3]", "result": 20, "unit": "nM"}, {"measurement": "Blockade of (nicotine-induced prostration) EC50", "setting": "rats [5]", "result": 25}]}, {"compound": "CN1[C@@H](CC(=O)c2ccccc2)CCC[C@H]1CC(=O)c1ccccc1", "note": "[lobelanine, reference compound]", "values": [{"measurement": "IC50", "setting": "[1]", "result": 5, "unit": "nM"}, {"measurement": "IC50", "setting": "[3]", "result": 10, "unit": "nM"}, {"measurement": "Blockade of (nicotine-induced prostration) EC50", "setting": "rats [5]", "result": 25}]}, {"compound": "CNC(=O)Oc1ccc2c(c1)[C@]1(C)CCN(C)[C@@H]1N2C", "note": "[physostigmin, reference compound]", "values": [{"measurement": "blockade of nicotine-induced prostration / antagonism, in words", "setting": "rats [5]", "result": "inactive"}]}, {"compound": "CCN(CC)CCOC(=O)c1ccc(N)cc1", "note": "[procaine, reference compound]", "values": [{"measurement": "blockade of nicotine-induced prostration / antagonism, in words", "setting": "rats [5]", "result": "effectively block nicotine-induced prostration; also recorded: antagonists"}]}, {"compound": "CN(C)C(=O)Oc1cccc([N+](C)(C)C)c1", "note": "[prostigmin, reference compound]", "values": [{"measurement": "blockade of nicotine-induced prostration / antagonism, in words", "setting": "rats [5]", "result": "inactive"}]}, {"compound": "N--benzylpiperidyl-methylcarbamate", "values": [{"measurement": "IC50", "setting": "[1]", "result": "> 100000", "unit": "nM"}, {"measurement": "IC50", "setting": "[3]", "result": "> 100000", "unit": "nM"}]}, {"compound": "α-bungarotoxin", "values": [{"measurement": "IC50", "setting": "[10]; pH 7, read-out: [3H]-MCC IC50", "result": "> 100000", "unit": "nM"}, {"measurement": "IC50", "setting": "[12]", "result": "> 100000", "unit": "nM"}, {"measurement": "Kd", "setting": "[12]", "result": "> 100000", "unit": "nM"}]}]}
